What was measured:
[1] = target: T1, human CCR2 (Homo sapiens, UniProt P41597); assay: Functional Ca2+ release test (B-1); type: cell-based; details: Chem-1 cell line transfected with human CCR2; 50% inhibition of the MCP-1 effect, MCP-1 at EC50 (about 5 nM); in some cases means of several determinations
T1 construct: host or cells: Chem-1 cell line
T1 sequence (P41597 1-360 isoform P41597-2): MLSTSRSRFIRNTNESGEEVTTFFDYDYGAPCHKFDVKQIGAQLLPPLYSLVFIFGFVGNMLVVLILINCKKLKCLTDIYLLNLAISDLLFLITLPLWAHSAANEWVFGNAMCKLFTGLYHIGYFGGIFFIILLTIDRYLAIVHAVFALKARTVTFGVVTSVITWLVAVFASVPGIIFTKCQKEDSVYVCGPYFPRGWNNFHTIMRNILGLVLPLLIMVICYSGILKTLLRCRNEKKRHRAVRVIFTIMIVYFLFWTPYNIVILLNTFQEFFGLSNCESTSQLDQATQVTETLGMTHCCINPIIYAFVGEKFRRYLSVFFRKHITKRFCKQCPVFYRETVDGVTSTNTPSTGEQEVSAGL
How it was run: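 Chem-1 cells expressing human CCR2, loaded with Fluo-4 for 60 min at 37° C, were preincubated 10 min with compound (10-point, 1:3.16 dilutions), then stimulated with MCP-1 at its predetermined EC50 (about 5 nM). Ca2+ release was monitored for 120 s. IC50 came from a 4-parameter Hill fit.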

[2] = target: T2, murine CCR2 (Mus musculus, UniProt P51683); assay: Functional β-arrestin recruiting test with murine MCP-1 (B-2b); type: cell-based; details: U2OS β-arrestin cell line transfected with murine CCR2; agonist murine MCP-1; in some cases means of several determinations
T2 construct: host or cells: U2OS β-arrestin cell line
How it was run: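 In a PathHunter β-galactosidase complementation assay, U2OS cells expressing murine CCR2 were preincubated 10 min with compound (10-point, 1:3.16 dilutions), then challenged with murine MCP-1 at its predetermined EC50 for 90 min at 37 °C. Luminescence was read after 60 min, and IC50 was fitted with a 4-parameter Hill function.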

T2 sequence (P51683 whole entry): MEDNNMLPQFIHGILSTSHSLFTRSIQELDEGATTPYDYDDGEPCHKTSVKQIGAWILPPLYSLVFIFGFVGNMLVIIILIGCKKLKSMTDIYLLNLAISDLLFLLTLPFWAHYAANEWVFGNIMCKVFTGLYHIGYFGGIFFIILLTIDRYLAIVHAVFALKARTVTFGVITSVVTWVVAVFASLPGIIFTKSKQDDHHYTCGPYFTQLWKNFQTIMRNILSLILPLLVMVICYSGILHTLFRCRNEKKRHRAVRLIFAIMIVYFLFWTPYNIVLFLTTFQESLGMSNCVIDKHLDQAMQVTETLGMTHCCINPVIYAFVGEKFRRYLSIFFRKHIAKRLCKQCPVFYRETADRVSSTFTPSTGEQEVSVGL

| SMILES | IC50 [1] [nM] | IC50 [2] [nM] |
| --- | --- | --- |
| CC(C)Oc1ccc(-c2nc(C(F)(F)F)c(Oc3ccc(Cl)c(Cl)c3)c(=O)[nH]2)cn1 [Example 163, 5-(3,4-dichlorophenoxy)-2-(6-isopropoxypyridin-3-yl)-6-(trifluoromethyl)pyrimidin-4(3H)-one] | 129 | 7680 |
| O=c1[nH]c(-c2cccnc2)nc(C(F)(F)F)c1Oc1ccc(Cl)c(C(F)(F)F)c1 [Example 164, 5-[4-chloro-3-(trifluoromethyl)phenoxy]-2-(pyridin-3-yl)-6-(trifluoromethyl)pyrimidin-4(3H)-one] | 16 | 798 |
| O=c1[nH]c(-c2cccnc2)nc(C(F)(F)F)c1Cc1ccc(Cl)c(C(F)(F)F)c1 [Example 165, 5-[4-chloro-3-(trifluoromethyl)benzyl]-2-(pyridin-3-yl)-6-(trifluoromethyl)pyrimidin-4(3H)-one] | 14 | 3370 |
| CNc1cccc(-c2nc(C(F)(F)F)c(Oc3ccc(Cl)c(Cl)c3)c(=O)[nH]2)n1 [Example 166, 5-(3,4-dichlorophenoxy)-2-[6-(methylamino)pyridin-2-yl]-6-(trifluoromethyl)pyrimidin-4(3H)-one] | 8.8 | 277 |
| CNc1cccc(-c2nc(C(F)(F)F)c(Oc3ccc(Cl)c(C(F)(F)F)c3)c(=O)[nH]2)n1 [Example 167, 5-[4-chloro-3-(trifluoromethyl)phenoxy]-2-[6-(methylamino)pyridin-2-yl]-6-(trifluoromethyl)pyrimidin-4(3H)-one] | 2.7 | 153 |
| CNc1ccnc(-c2nc(C(F)(F)F)c(Oc3ccc(Cl)c(Cl)c3)c(=O)[nH]2)c1 [Example 168, 5-(3,4-dichlorophenoxy)-2-[4-(methylamino)pyridin-2-yl]-6-(trifluoromethyl)pyrimidin-4(3H)-one] | 25 | 1210 |
| CNc1ccnc(-c2nc(C(F)(F)F)c(Oc3ccc(Cl)c(C(F)(F)F)c3)c(=O)[nH]2)c1 [Example 169, 5-[4-chloro-3-(trifluoromethyl)phenoxy]-2-[4-(methylamino)pyridin-2-yl]-6-(trifluoromethyl)pyrimidin-4(3H)-one] | 36 | 624 |
| Cc1cc(-c2nc(C(F)(F)F)c(Oc3ccc(Cl)c(C(F)(F)F)c3)c(=O)[nH]2)nn1C [Example 170, 5-[4-chloro-3-(trifluoromethyl)phenoxy]-2-(1,5-dimethyl-1H-pyrazol-3-yl)-6-(trifluoromethyl)pyrimidin-4(3H)-one] | 0.7 | 84 |
| COc1conc1-c1nc(C(F)(F)F)c(Oc2ccc(Cl)c(Cl)c2)c(=O)[nH]1 [Example 179, 5-(3,4-dichlorophenoxy)-2-(4-methoxy-1,2-oxazol-3-yl)-6-(trifluoromethyl)pyrimidin-4(3H)-one] | 1.8 | 73 |
| COc1conc1-c1nc(C(F)(F)F)c(Oc2ccc(Cl)c(C(F)(F)F)c2)c(=O)[nH]1 [Example 180, 5-[4-chloro-3-(trifluoromethyl)phenoxy]-2-(4-methoxy-1,2-oxazol-3-yl)-6-(trifluoromethyl)pyrimidin-4(3H)-one] | 1 | 105 |
| O=c1[nH]c(-c2ncccc2Br)nc(C(F)(F)F)c1Oc1ccc(Cl)c(Cl)c1 [Example 181, 2-(3-bromopyridin-2-yl)-5-(3,4-dichlorophenoxy)-6-(trifluoromethyl)pyrimidin-4(3H)-one] | 0.7 | 7.9 |
| O=c1[nH]c(-c2ncccc2Br)nc(C(F)(F)F)c1Oc1ccc(Cl)c(C(F)(F)F)c1 [Example 182, 2-(3-bromopyridin-2-yl)-5-[4-chloro-3-(trifluoromethyl)phenoxy]-6-(trifluoromethyl)pyrimidin-4(3H)-one] | 0.3 | 8.4 |
| COc1cc(C)nc(-c2nc(C(F)(F)F)c(Oc3ccc(Cl)c(Cl)c3)c(=O)[nH]2)n1 [Example 183, 5-(3,4-dichlorophenoxy)-4′-methoxy-6′-methyl-6-(trifluoromethyl)-2,2′-bipyrimidin-4(3H)-one] | 2.9 | 145 |
| COc1cc(C)nc(-c2nc(C(F)(F)F)c(Oc3ccc(Cl)c(C(F)(F)F)c3)c(=O)[nH]2)n1 [Example 184, 5-[4-chloro-3-(trifluoromethyl)phenoxy]-4′-methoxy-6′-methyl-6-(trifluoromethyl)-2,2′-bipyrimidin-4(3H)-one] | 0.8 | 221 |
| O=c1[nH]c(-c2ncccc2C(F)(F)F)nc(C(F)(F)F)c1Oc1ccc(Cl)c(Cl)c1 [Example 185, 5-(3,4-dichlorophenoxy)-6-(trifluoromethyl)-2-[3-(trifluoromethyl)pyridin-2-yl]pyrimidin-4(3H)-one] | 27 | 405 |
| O=c1[nH]c(-c2ncccc2C(F)(F)F)nc(C(F)(F)F)c1Oc1ccc(Cl)c(C(F)(F)F)c1 [Example 186, 5-[4-chloro-3-(trifluoromethyl)phenoxy)-6-(trifluoromethyl)-2-[3-(trifluoromethyl)pyridin-2-yl]pyrimidin-4(3H)-one] | 4.8 | 513 |
| O=c1[nH]c(-c2ncccc2-c2ccccc2)nc(C(F)(F)F)c1Oc1ccc(Cl)c(Cl)c1 [Example 187, 5-(3,4-dichlorophenoxy)-2-(3-phenylpyridin-2-yl)-6-(trifluoromethyl)pyrimidin-4(3H)-one] | 16 | 1600 |
| O=c1[nH]c(-c2ncccc2-c2ccccc2)nc(C(F)(F)F)c1Oc1ccc(Cl)c(C(F)(F)F)c1 [Example 188, 5-[4-chloro-3-(trifluoromethyl)phenoxy]-2-(3-phenylpyridin-2-yl)-6-(trifluoromethyl)pyrimidin-4(3H)-one] | 1.5 | 828 |
| CC(C)(C)Sc1cccnc1-c1nc(C(F)(F)F)c(Oc2ccc(Cl)c(Cl)c2)c(=O)[nH]1 [Example 189] | 53 | 1030 |
| CC(C)(C)Sc1cccnc1-c1nc(C(F)(F)F)c(Oc2ccc(Cl)c(C(F)(F)F)c2)c(=O)[nH]1 [Example 190] | 62 | 2110 |
| CSc1ccnc(-c2nc(C(F)(F)F)c(Oc3ccc(Cl)c(C(F)(F)F)c3)c(=O)[nH]2)c1 [Example 191, 5-[4-chloro-3-(trifluoromethyl)phenoxy)-2-[4-(methylsulphanyl)pyridin-2-yl]-6-(trifluoromethyl)pyrimidin-4(3H)-one] | 5 | 693 |
| CSc1ccnc(-c2nc(C(F)(F)F)c(Oc3ccc(Cl)c(Cl)c3)c(=O)[nH]2)c1 [Example 192, 5-(3,4-dichlorophenoxy)-2-[4-(methylsulphanyl)pyridin-2-yl]-6-(trifluoromethyl)pyrimidin-4(3H)-one] | 11 | 758 |
| Cc1ccc(-c2nc(C(F)(F)F)c(Oc3ccc(Cl)c(C(F)(F)F)c3)c(=O)[nH]2)nc1 [Example 193, 5-[4-chloro-3-(trifluoromethyl)phenoxy]-2-(5-methylpyridin-2-yl)-6-(trifluoromethyl)pyrimidin-4(3H)-one] | 0.7 | 79 |
| COc1cccnc1-c1nc(C(F)(F)F)c(Oc2ccc(Cl)c(C)c2)c(=O)[nH]1 [Example 194, 5-(4-chloro-3-methylphenoxy)-2-(3-methoxypyridin-2-yl)-6-(trifluoromethyl)pyrimidin-4(3H)-one] | 0.3 | 59 |

Source: patent US20160237059A1, “HETEROCYCLIC SUBSTITUTED TRIFLUOROMETHYL PYRIMIDINONES AND THEIR USE” (BAYER PHARMA AKTIENGESELLSCHAFT, priority 2013, published 2016)
